Test results taken from patent US12240813B2, “Deuterated tryptamine derivatives and methods of use” (priority 2020, dated 2025).

Legend:
[1] = target: T1, hrMAO-A (Homo sapiens, UniProt P21397); assay: Metabolic stability in the presence of hrMAO-A; format: in vitro ADME; conditions: for MAO, % (half-life as % vs. the related nondeuterated compound) / MAO (metabolized or not): MAO-A; for MAO, % (half-life as % vs. the related nondeuterated compound): values in square brackets are within 10% difference (assay's accuracy), no deuteration effect; for MAO (metabolized or not): last assay time point 120 min
T1 construct: purchased XenoTech Lot #8213001
T1 sequence (P21397 1-527): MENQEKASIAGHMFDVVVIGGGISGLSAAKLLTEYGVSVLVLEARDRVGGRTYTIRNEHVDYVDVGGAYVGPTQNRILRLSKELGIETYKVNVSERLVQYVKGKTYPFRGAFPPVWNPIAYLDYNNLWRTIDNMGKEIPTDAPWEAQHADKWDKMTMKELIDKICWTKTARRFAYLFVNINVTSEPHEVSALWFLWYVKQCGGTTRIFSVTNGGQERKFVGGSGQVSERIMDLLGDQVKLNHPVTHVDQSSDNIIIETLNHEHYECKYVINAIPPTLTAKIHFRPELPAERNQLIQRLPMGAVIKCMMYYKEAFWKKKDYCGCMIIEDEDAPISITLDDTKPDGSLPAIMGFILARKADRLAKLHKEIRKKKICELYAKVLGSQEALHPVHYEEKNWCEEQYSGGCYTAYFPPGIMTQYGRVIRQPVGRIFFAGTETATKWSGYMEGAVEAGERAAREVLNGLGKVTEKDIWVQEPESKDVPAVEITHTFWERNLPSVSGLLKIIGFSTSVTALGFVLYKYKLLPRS
Procedure: The reaction mixture was prepared as described below. The co-dosed TAs were added into the reaction mixture at a final concentration of 1 microM each. The positive control, kynuramine (25 microM), was run simultaneously with the TAs in a separate reaction. The reaction mixture (without TAs or kynuramine) was equilibrated in a shaking water bath at 37° C. for 5 minutes. The reaction was initiated by the addition of the TAs or kynuramine, and the mixture was incubated in a shaking water bath at 37° C. Aliquots (100 microL) of the TA reaction mixture were withdrawn at 0, 5, 10, 20, 30, 60, and 120 minutes. Aliquots (100 microL) of the positive control reaction mixture were withdrawn at 0 and 30 minutes. TA and kynuramine samples were immediately combined with 100 microL of ice-cold 100% MeCN containing 0.1% formic acid and IS to terminate the reaction. The samples were then mixed and centrifuged to precipitate proteins. All TA samples were assayed by LC-HRAMS. The PARR (analyte to IS) at each time point was compared to the PARR at time 0 to determine the percent remaining at each time point. Reaction composition: hrMAO 0.02 mg/mL; Potassium Phosphate, pH 7.4 100 mM; Magnesium Chloride 5 mM; Test Articles (each) 1 microM.

[2] = tested on: rat liver microsomes; assay: Metabolic stability in rat liver microsomes (RLM); conditions: for RLM, % (half-life as % vs. the related nondeuterated compound): values in square brackets are within 10% difference (assay's accuracy), no deuteration effect; for RLM (metabolized or not): last assay time point 120 min

SMILES | MAO, % (half-life as % vs. the related nondeuterated compound) [1] | RLM, % (half-life as % vs. the related nondeuterated compound) ([2]; RLM) [%] | further results
[2H]c1[nH]c2c([2H])c([2H])c([2H])c([2H])c2c1C([2H])([2H])C([2H])([2H])N(C([2H])([2H])[2H])C([2H])([2H])[2H] [DMT-d15] | 643% | 325 | half-life compared to DMT-d10 ([2]; RLM assay): no improvement in half-life
[2H]c1[nH]c2c([2H])c([2H])c([2H])c([2H])c2c1C([2H])([2H])C([2H])([2H])N(C)C | 551% | 243 | 
[2H]C([2H])([2H])Oc1ccc2[nH]cc(CCN(C)C)c2c1 | [109] % | 151 | 
CN(C)CCc1c[nH]c2ccc(O)cc12 [reference compound] |  |  | MAO (metabolized or not) [1]: R; RLM (metabolized or not) ([2]; RLM): R
[2H]C([2H])(c1c[nH]c2ccc(OC)cc12)C([2H])([2H])N(C)CC | 132% | 115 | 
[2H]C([2H])(c1c[nH]c2cccc(OC)c12)C([2H])([2H])N(C)C | 325% | 190 | 
[2H]C([2H])(Cc1c[nH]c2ccc(O)cc12)N(C)C | 415% | 133 | 
[2H]C([2H])([2H])NC([2H])([2H])C([2H])([2H])c1c[nH]c2cccc(O)c12 | 459% | 173 | 
[2H]C([2H])([2H])C([2H])([2H])NC([2H])([2H])C([2H])([2H])c1c[nH]c2ccccc12 | 166% | 159 | 
CCN(C)CCc1c[nH]c2ccc(OC)cc12 [reference compound] |  |  | MAO (metabolized or not) [1]: R; RLM (metabolized or not) ([2]; RLM): R
[2H]C([2H])(c1c[nH]c2ccc(OC)cc12)C([2H])([2H])N(C)C | 229% | 184 | 
[2H]C([2H])([2H])Oc1ccc2[nH]cc(C([2H])([2H])C([2H])([2H])N(C([2H])([2H])[2H])C([2H])([2H])[2H])c2c1 | 372% | 299 | 
[2H]C([2H])([2H])NC([2H])([2H])C([2H])([2H])c1c[nH]c2ccccc12 | 711% | 214 | 
[2H]C([2H])(Cc1c[nH]c2cccc(OC)c12)N(C)CC | 281% | 163 | 
[2H]C([2H])(Cc1c[nH]c2ccccc12)N(C)C [DMT-d2] |  |  | % Remaining of Initial, 0 min ([1]; hrMAO-A, 0 min, Table 3, four test articles): 100%; % Remaining of Initial, 5 min ([1]; hrMAO-A, 5 min, Table 3, four test articles): 106%; % Remaining of Initial, 10 min ([1]; hrMAO-A, 10 min, Table 3, four test articles): 111%; % Remaining of Initial, 20 min ([1]; hrMAO-A, 20 min, Table 3, four test articles): 101%; % Remaining of Initial, 30 min ([1]; hrMAO-A, 30 min, Table 3, four test articles): 97.5%; % Remaining of Initial, 60 min ([1]; hrMAO-A, 60 min, Table 3, four test articles): 76.0%; % Remaining of Initial, 120 min ([1]; hrMAO-A, 120 min, Table 3, four test articles): 59.1%; CLint ([1]; hrMAO-A, Table 3): 0.126 mL/min/mg protein; Half-life ([1]; hrMAO-A, Table 3, four test articles): > 120 min; % Remaining of Initial, 0 min ([2]; RLM, 0 min, Table 2, four test articles): 100%; % Remaining of Initial, 5 min ([2]; RLM, 5 min, Table 2, four test articles): 67.5%; % Remaining of Initial, 10 min ([2]; RLM, 10 min, Table 2, four test articles): 56.6%; % Remaining of Initial, 20 min ([2]; RLM, 20 min, Table 2, four test articles): 48.8%; % Remaining of Initial, 30 min ([2]; RLM, 30 min, Table 2, four test articles): 43.3%; % Remaining of Initial, 60 min ([2]; RLM, 60 min, Table 2, four test articles): 32.0%; % Remaining of Initial, 120 min ([2]; RLM, 120 min, Table 2, four test articles): 21.5%
[2H]C([2H])(NC)C([2H])([2H])c1c[nH]c2ccccc12 | 622% | 189 | 
